Measured values as given in ChEMBL document CHEMBL3217640, “Labile natural products” (Medchemcomm, 2012).

Experiments:
[1] = tested on: Mus musculus; experiment: Toxicity in po dosed mouse; format: organism-based; conditions: in vivo
[2] = tested on: Rattus norvegicus; experiment: Antiinflammatory activity in Wistar rat assessed as inhibition of heat-killed Mycobacterium butyricum-induced paw swelling at 10 mg/kg, po administered on day 10 to 15 measured everyday of compound dosing by plethysmometer relative to control; format: functional; conditions: 240 h

SMILES	LD100 [1] [mg/kg]	inhibition in vivo at 10 mg/kg [2] [%]
O=C(O)C1C=C1	2.5	–
CCCCCc1oc(CCCCCCCCCCC(=O)OCC)c(C)c1C	–	74
